Here are results for 22 compounds from patent US5602153A, “Method of using 1-arylheteroarylalkyl substituted-1H-1,2,4-triazole compounds for treatment of a giaucoma disorder” (G.D. Searle & Co., priority 1993, dated 1997).

One assay concerns the target T1, rabbit aortic rings (Oryctolagus cuniculus, UniProt P34976).
T1 construct: The thoracic aorta was removed, cleaned of adherent fat and connective tissue; from tissue; host or cells: thoracic aorta rings, endothelium removed, male New Zealand white rabbit
T1 sequence (P34976 1-359): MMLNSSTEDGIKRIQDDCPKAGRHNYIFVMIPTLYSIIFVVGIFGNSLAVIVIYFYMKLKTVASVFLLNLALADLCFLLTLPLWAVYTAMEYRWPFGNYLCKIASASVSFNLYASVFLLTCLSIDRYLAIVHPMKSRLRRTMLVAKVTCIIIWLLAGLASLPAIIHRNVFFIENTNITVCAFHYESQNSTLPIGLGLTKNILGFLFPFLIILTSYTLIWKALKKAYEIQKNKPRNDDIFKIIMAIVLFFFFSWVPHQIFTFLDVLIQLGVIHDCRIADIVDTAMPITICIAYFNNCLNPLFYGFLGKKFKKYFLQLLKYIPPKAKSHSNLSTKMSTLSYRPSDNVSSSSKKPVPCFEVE
Description: Assay B: In Vitro Vascular Smooth Muscle-Response for AII (antagonist activity in rabbit aortic rings). Format: cell-based, rabbit (male New Zealand white). As to conditions: antagonist 10^-5 M for 5 min, AII challenge. The protocol:
Assay B: In Vitro Vascular Smooth Muscle-Response for AII The compounds of the invention were tested for antagonist activity in rabbit aortic rings. Male New Zealand white rabbits (2-2.5 kg) were sacrificed using an overdose of pentobarbital and exsanguinated via the carotid arteries. The thoracic aorta was removed, cleaned of adherent fat and connective tissue and then cut into 3-mm ring segments. The endothelium was removed from the rings by gently sliding a rolled-up piece of filter paper into the vessel lumen. The rings were then mounted in a water-jacketed tissue bath, maintained at 37° C., between moveable and fixed ends of a stainless steel wire with the moveable end attached to an FT03 Grass transducer coupled to a Model 7D Grass Polygraph for recording isometric force responses. The bath was filled with 20 ml of oxygenated (95% oxygen/5% carbon dioxide) Krebs solution of the following composition (mM): 130 NaCl, 15 NaHCO3, 15 KCl, 1.2 NaH2 PO4, 1.2 MgSO4, 2.5 CaCl2, and 11.4 glucose. The preparations were equilibrated for one hour before approximately one gram of passive tension was placed on the rings. Angiotensin II concentration-response curves were then recorded (3×10^-10 to 1×10^-5 M). Each concentration of AII was allowed to elicit its maximal contraction, and then AII was washed out repeatedly for 30 minutes before rechallenging with a higher concentration of AII. Aorta rings were exposed to the test antagonist at 10^-5 M for 5 minutes before challenging with AII. Adjacent segments of the same aorta ring were used for all concentration-response curves in the presence or absence of the test antagonist. The effectiveness of the test compound was expressed in terms of pA2 values and were calculated according to H.O. Schild [Br. J. Pharmacol. Chemother., 2, 189-206 (1947)]. The pA2 value is the concentration of the antagonist which increases the EC50 value for AII by a factor of two. Each test antagonist was evaluated in aorta rings from two rabbits.

In assay [1] the target is smooth muscle angiotensin II receptor. Description: Assay A: Angiotensin II Binding Activity (displacement of 125I-AII, rat uterine membrane preparation). As to conditions: rat uterine membranes, 25 °C, 60 min; read-out: IC50 (50% displacement of total specifically bound 125I-AII). Here is the method: Assay A: Anaiotensin II Binding Activity
Compounds of the invention were tested for ability to bind to the smooth muscle angiotensin II receptor using a rat uterine membrane preparation. Angiotensin II (AII) was purchased from Peninsula Labs. ^125 I-angiotensin II (specific activity of 2200 Ci/mmol) was purchased from Du Pont-New England Nuclear. Other chemicals were obtained from Sigma Chemical Co. This assay was carried out according to the method of Douglas et al [Endocrinology, 106, 120-124 (1980)]. Rat uterine membranes were prepared from fresh tissue. All procedures were carried out at 4° C. Uteri were stripped of fat and homogenized in phosphate-buffered saline at pH 7.4 containing 5 mM EDTA. The homogenate was centrifuged at 1500×g for 20 min., and the supernatant was recentrifuged at 100,000×g for 60 min. The pellet was resuspended in buffer consisting of 2 mM EDTA and 50 mM Tris-HCl (pH 7.5) to a final protein concentration of 4 mg/ml. Assay tubes were charged with 0.25 ml of a solution containing 5 mM MgCl2, 2 mM EDTA, 0.5% bovine serum albumin, 50 mM Tris-HCl, pH 7.5 and ^125 I-AII (approximately 10^5 cpm) in the absence or in the presence of unlabelled ligand. The reaction was initiated by the addition of membrane protein and the mixture was incubated at 25° C. for 60 min. The incubation was terminated with ice-cold 50 mM Tris-HDl (pH 7.5) and the mixture was filtered to separate membrane-bound labelled peptide from the free ligand. The incubation tube and filter were washed with ice-cold buffer. Filters were assayed for radioactivity in a Micromedic gamma counter. Nonspecific binding was defined as binding in the presence of 10 μM of unlabelled AII. Specific binding was calculated as total binding minus nonspecific binding. The receptor binding affinity of an AII antagonist compound was indicated by the concentration (IC50) of the tested AII antagonist which gives 50% displacement of the total specifically bound ^125 I-AII from the high affinity AII receptor. Binding data were analyzed by a nonlinear least-squares curve fitting program.

Setting [2] is: first of two rabbits, read-out: pA2 (first value) (converted).
[3] abbreviates: second of two rabbits, read-out: pA2 (converted).

Read-outs that look alike come from different tables or passages of the source.

As for `CCCCc1nc(CCCC)n(Cc2ccc(-c3cccnc3-c3nnn[nH]3)cc2)n1` [Example 4, 5-[3-[4-[(3,5-dibutyl-1H-1,2,4-triazol-1-yl)methyl]phenyl]-2-pyridinyl]-1H-tetrazole], the Kb was 77.6 nM on rabbit aortic rings (setting [2]) and 251 nM at rabbit aortic rings (setting [3]). Also, the IC50 in assay [1] was 110 nM.

As for `CCCCc1nc(CCCC)n(Cc2ccc(-c3ncccc3-c3nnn[nH]3)cc2)n1` [Example 7, 5-[2-[4-[(3,5-dibutyl-1H-1,2,4-triazol-1-yl)methyl]phenyl]-3-pyridinyl]-1H-tetrazole], the Kb on rabbit aortic rings (setting [2]) was 229 nM; at rabbit aortic rings (setting [3]) it was 91.2 nM. Moreover, the IC50 in assay [1] is 98 nM.

In the case of `CCCCc1nc(CCCC)n(Cc2ccc(-c3ccccc3C(=O)O)nc2)n1` [Example 2, 2-[5-[(3,5-dibutyl-1H-1,2,4-triazol-1-yl)methyl]-2-pyridinyl]benzoic acid], the IC50 in assay [1] was 120 nM.

As to `CCCCc1nc(CCc2ccccc2)n(Cc2ccc(-c3ccccc3-c3nnn[nH]3)nc2)n1` [Example 16, 5-[2-[5-[[3-butyl-5-(2-phenylethyl)-1H-1,2,4-triazol-1-yl)methyl]-2-pyridinyl]phenyl]-1H-tetrazole], in assay [1], the IC50 came to 72 nM.

Take `CCCCc1nc(-c2ccccc2C(C)C)n(Cc2ccc(-c3ccccc3-c3nnn[nH]3)nc2)n1` [Example 26, 5-[2-[5-[[3-butyl-5-(2-isopropylphenyl)-1H-1,2,4-triazol-1-yl)methyl]-2-pyridinyl]phenyl]-1H-tetrazole]: the 50% inhibitory concentration (IC50) in assay [1] amounted to 11 nM.

As to `CCCc1nc(CCC)n(Cc2ccc(-c3ccccc3-c3nnn[nH]3)nc2)n1` [Example 8, 5-[2-[5-[(3,5-dipropyl-1H-1,2,4triazol-1-yl)methyl]-2-pyridinyl]phenyl]-1H-tetrazole], the Kb on rabbit aortic rings (setting [2]) is 34.7 nM; at rabbit aortic rings (setting [3]) it was 25.7 nM. Moreover, the IC50 in assay [1] was 72 nM.

Turning to `CCCCc1nc(-c2ccccc2C(C)C)nn1Cc1ccc(-c2ccccc2-c2nnn[nH]2)nc1` [Example 25, 5-[2-[5-[[3-(2-isopropylphenyl)-5-butyl-1H-1,2,4-triazol-1-yl)methyl]-2-pyridinyl]phenyl]-1H-tetrazole], the half-inhibitory concentration (IC50) in assay [1] came to 57 nM.

Take `CCCCc1nc(C(=O)NC)n(Cc2ccc(-c3ccccc3-c3nnn[nH]3)nc2)n1` [Example 20, 5-[2-[5-[[3-butyl-5-(N-methylamido)-1H-1,2,4-triazol-1-yl)methyl]-2-pyridinyl]phenyl]-1H-tetrazole]: the Kb at rabbit aortic rings (setting [2]) and on rabbit aortic rings (setting [3]) was 145 nM throughout. Besides, in assay [1], the IC50 stood at 350 nM.

As for `CCCCc1nc(CCCC)n(Cc2ccc(-c3cnccc3-c3nnn[nH]3)cc2)n1` [Example 6, 5-[3-[4-[(3,5-dibutyl-1H-1,2,4-triazol-1-yl)methyl]phenyl]-4-pyridinyl]-1H-tetrazole], the Kb at rabbit aortic rings (setting [2]) and at rabbit aortic rings (setting [3]) was 67.6 nM each time. In addition, in assay [1], the IC50 was found to be 150 nM.

`CCCCc1nc(-c2ccccc2C)nn1Cc1ccc(-c2ccccc2-c2nnn[nH]2)nc1` [Example 23, 5-[2-[5-[[3-(2-methylphenyl)-5-butyl-1H-1,2,4-triazol-1-yl)methyl]-2-pyridinyl]phenyl]-1H-tetrazole]: the 50% inhibitory concentration (IC50) in assay [1] came to 18 nM.

Take `CCCCc1nc(CC(CC)CC)nn1Cc1ccc(-c2ccccc2-c2nnn[nH]2)nc1` [Example 13, 5-[2-[5-[[3-(2-ethylbutyl)-5-butyl-1H-1,2,4-triazol-1-yl)methyl]-2-pyridinyl]phenyl]-1H-tetrazole]: in assay [1], the IC50 turned out to be 25 nM.

`CCCCc1nc(CC(CC)CC)n(Cc2ccc(-c3ccccc3-c3nnn[nH]3)nc2)n1` [Example 14, 5-[2-[5-[[3-butyl-5-(2-ethylbutyl)-1H-1,2,4-triazol-1-yl)methyl]-2-pyridinyl]phenyl]-1H-tetrazole]: the IC50 in assay [1] amounted to 13 nM.

`CCCCc1nc(C(=O)NC)nn1Cc1ccc(-c2ccccc2-c2nnn[nH]2)nc1` [Example 19, 5-[2-[5-[[3-(N-methylamido)-5-butyl-1H-1,2,4-triazol-1-yl)methyl]-2-pyridinyl]phenyl]-1H-tetrazole]: the results for the Kb at rabbit aortic rings (setting [2]) and at rabbit aortic rings (setting [3]) were 234 nM and 209 nM, respectively. Moreover, the IC50 in assay [1] was 160 nM.

For `CCCCc1nc(-c2c(F)cccc2F)n(Cc2ccc(-c3ccccc3-c3nnn[nH]3)nc2)n1` [Example 32, 5-[2-[5-[[3-butyl-5-(2,6-difluorophenyl)-1H-1,2,4-triazol-1-yl)methyl]-2-pyridinyl]phenyl]-1H-tetrazole], in assay [1], the IC50 stood at 21 nM.

Consider `CCCCc1nc(CCc2ccccc2)nn1Cc1ccc(-c2ccccc2-c2nnn[nH]2)nc1` [Example 15, 5-[2-[5-[[3-(2-phenylethyl)-5-butyl-1H-1,2,4-triazol-1-yl)methyl]-2-pyridinyl]phenyl]-1H-tetrazole], for which, in assay [1], the half-inhibitory concentration (IC50) came to 2.6 nM.

`CCCCc1nc(-c2ccccc2)nn1Cc1ccc(-c2ccccc2-c2nnn[nH]2)nc1` [Example 21, 5-[2-[5-[(3-phenyl-5-butyl-1H-1,2,4-triazol-1-yl)methyl]-2-pyridinyl]phenyl]-1H-tetrazole]: the IC50 in assay [1] came to 54 nM.

For the compound `CCCCc1nc(CCCC)n(Cc2ccc(-c3ccncc3-c3nnn[nH]3)cc2)n1` [Example 5, 5-[4-[4-[(3,5-dibutyl-1H-1,2,4-triazol-1-yl)methyl]phenyl]-3-pyridinyl]-1H-tetrazole], the IC50 in assay [1] worked out at 250 nM.

Consider `CCCCc1nc(-c2c(F)cccc2F)nn1Cc1ccc(-c2ccccc2-c2nnn[nH]2)nc1` [Example 31, 5-[2-[5-[[3-(2,6-difluorophenyl)-5-butyl-1H-1,2,4-triazol-1-yl)methyl]-2-pyridinyl]phenyl]-1H-tetrazole], for which the IC50 in assay [1] is 9.7 nM.

For `CCCCc1nc(-c2ccccc2)n(Cc2ccc(-c3ccccc3-c3nnn[nH]3)nc2)n1` [Example 22, 5-[2-[5-[(3-butyl-5-phenyl-1H-1,2,4-triazol-1-yl)methyl]-2-pyridinyl]phenyl]-1H-tetrazole], in assay [1], the IC50 turned out to be 220 nM.

As for `CCCCc1nc(-c2ccccc2OC)nn1Cc1ccc(-c2ccccc2-c2nnn[nH]2)nc1` [Example 27, 5-[2-[5-[[3-(2-methoxyphenyl)-5-butyl-1H-1,2,4-triazol-1-yl)methyl]-2-pyridinyl]phenyl]-1H-tetrazole], in assay [1], the IC50 was determined as 110 nM.

Take `CCCCc1nc(-c2ccccc2C)n(Cc2ccc(-c3ccccc3-c3nnn[nH]3)nc2)n1` [Example 24, 5-[2-[5-[[3-butyl-5-(2-methylphenyl)-1H-1,2,4-triazol-1-yl)methyl]-2-pyridinyl]phenyl]-1H-tetrazole]: on rabbit aortic rings (setting [3]), the Kb is 603 nM. Moreover, the concentration for half-maximal inhibition (IC50) in assay [1] worked out at 530 nM.

In the case of `CCCCc1nc(-c2ccccc2OC)n(Cc2ccc(-c3ccccc3-c3nnn[nH]3)nc2)n1` [Example 28, 5-[2-[5-[[3-butyl-5-(2-methoxyphenyl)-1H-1,2,4-triazol-1-yl)methyl]-2-pyridinyl]phenyl]-1H-tetrazole], the IC50 in assay [1] turned out to be 290 nM.
